# Reference: patent US20170007663A1, “METHODS AND COMPOSITIONS FOR TREATING AND […] DYSFUNCTION” (CORNELL UNIVERSITY, priority 2013, published 2017)
# Non-standard residues stand in square brackets, D forms with d. No end group written: not given here.
# Legend:
# [1] = target: mu-opioid receptor (Homo sapiens, UniProt P35372); details: stated without a described test; cited from earlier work
# [2] = system: several mammalian cell types; details: cited from earlier work
# [3] = system: cerebral metabolic rate of oxygen (CMRO); experiment: Burst suppression model (Ching et al.) for cerebral metabolic rate of oxygen
# From the text: A burst suppression model, as described in Ching et al., PNAS, 109(8): 3095-3100, (2012), will be used to determine the effect of D-Arg-2′,6′-Dmt-Lys-Phe-NH2 on CMRO. A range of 10^−9 to 10^−6 molar concentration of D-Arg-2′,6′-Dmt-Lys-Phe-NH2 will be assayed and compared to untreated and control peptide assays.
# Chain of mu-opioid receptor (P35372 whole entry, species assumed): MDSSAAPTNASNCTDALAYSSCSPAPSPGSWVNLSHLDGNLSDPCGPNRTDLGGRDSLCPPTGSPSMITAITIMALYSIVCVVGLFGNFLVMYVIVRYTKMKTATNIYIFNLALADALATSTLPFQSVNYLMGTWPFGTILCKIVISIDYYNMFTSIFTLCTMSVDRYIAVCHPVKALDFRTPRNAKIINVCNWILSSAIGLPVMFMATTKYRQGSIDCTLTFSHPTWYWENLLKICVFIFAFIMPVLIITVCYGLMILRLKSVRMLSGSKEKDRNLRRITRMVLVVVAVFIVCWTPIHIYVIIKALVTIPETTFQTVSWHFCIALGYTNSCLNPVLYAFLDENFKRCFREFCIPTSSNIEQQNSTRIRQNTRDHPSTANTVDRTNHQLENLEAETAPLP
Substance,mu-opioid receptor agonist activity [1],penetration of the plasma membrane [2],"CMRO ([3]; 10^−9 to 10^−6 molar, compared to untreated and control peptide assays)","cerebral metabolism / neuronal cellular and network function ([3]; burst suppression model, FIG. 1)"
Tyr-D-Arg-Phe-Lys-NH2,has mu-opioid receptor agonist activity,,,
"2′,6′-Dmt-D-Arg-Phe-Lys-NH2",,readily penetrates the plasma membrane of several mammalian cell types in an energy-independent manner,,
F[dR]FK-NH2,does not have mu-opioid receptor agonist activity,,,
"D-Arg-2′,6′-Dmt-Lys-Phe-NH2",does not have mu-opioid receptor agonist activity,,increase in CMRO,increase in cerebral metabolism and/or a restoration of neuronal cellular and network function
